≈ marks a conversion by molar mass, not a printed value. Where “and” joins values, the source holds several entries; their conditions need not be identical. Identical values can stand only once. Like-named read-outs stand apart in the source and are kept apart here. Ends that are not written are not given here.
Key:
[1] = test system: C. difficile; set-up: method as in PMID 20974818; settings: cited from earlier work
[2] = set-up: method as in earlier work; settings: cited from earlier work
[3] = 1.0 mg/mL in water
Experimental: Five aliquots of each compound were prepared by dissolving them to 1.0 mg/mL in HPLC grade water (Fisher Scientific, USA). A total of 2 aliquots of the solution were placed in a 37°C stability chamber, and 2 aliquots were placed in a 50°C chamber. Samples were collected on days 0, 2 and 7, centrifuged at 12,000 x g for 5 min, and the supernatants were transferred to a fresh tube. Each sample was diluted 1:4 with 0.05% trifluoroacetic acid (TFA) and the purity and quantity were analyzed by HPLC as described above.

[4] = test system: C. difficile; test: microbe, parasite or virus in culture; format: cell-based, Clostridium difficile
Experimental: MIC testing for C. difficile was performed by Eurofins Panlabs Taiwan LTD based on modifications from the CLSI M11-A8 broth dilution method for Bacteroides fragilis susceptibility testing. Briefly, Reinforced Clostridial Medium (RCM) was pre-reduced by over-night incubation in an anaerobic chamber (80% N2, 10% CO2, and 10% H2) prior to use. MU1140 and variants were dissolved in 100% DMSO, diluted by 2-fold serial dilution in 100% DMSO, for a total of 11 concentrations. A 4 μL aliquot of each dilution was added to 96 μL RCM in wells of a 96 well plate using a Biomek FX instrument (Beckman Coulter, USA), followed by the addition of C. difficile suspension, in RCM, 100 μL/well. The final bacterial count was 2 x 10^5 to 1 x 10^6 colony forming units/mL, in 200 μL per assay well. […] Assay plates were incubated at 35°C for 46 to 48 hr in the anaerobic chamber (A35 Anaerobic Workstation, Don Whitley, UK). Following incubation, test plates were visually examined and each well was scored for growth then the MIC was recorded as the lowest concentration that results in complete inhibition of growth. Each test substance was evaluated in duplicate. Vehicle-control and vancomycin were used as blank and positive controls, respectively. The MIC values of the vancomycin controls were consistent with the historical data against test strains (data not shown).

[5] = 5% D-mannitol
Experimental: (§1) To that end, approximately 10 mg of each compound was weighed on a high-precision balance and dispensed into a 1.5 mL microfuge tube.

[6] = Solubility 5% D-mannitol, 5% D-mannitol in water, visual assessment
Experimental: as §1

[7] = FaSSIF with trypsin/chymotrypsin
Experimental: FaSSIF was supplemented with 2% pancreatin (w/v), 6 μg/mL of trypsin and 6 μg/mL of α-chymotrypsin and was prepared as previously reported [22]. All proteases were from Fisher ScientificSamples were collected at the same frequency as in the FaSSGF study, and analyzed using the same method.

[8] = test system: C. difficile UNT103-1; test: Golden Syrian hamster model of CDAD, oral gavage efficacy; format: in vivo
Experimental: In vivo efficacy was performed as previously described in detail, except that the compounds were administered via oral gavage (rather than the illeal cannulation method used previously). This study was carried out in accordance with protocols 2016–0015 approved by the Institutional Animal Care and Use Committee (IACUC) at the University of North Texas Health Science Center (UNTHSC). IACUC established guidelines ensuring that approved protocols are in compliance with federal and state laws regarding animal care and use activity at UNTHSC. The UNTHSC animal program in USDA registered (74-R0081) and fully AAALAC accredited.
Briefly, 7–8 weeks old Male Golden Syrian hamsters were used in this study, and weighted 100–120 g (Charles River Laboratories, Wilmington, MA). C. difficile UNT103-1 (VA11, non epidemic (cdtB-, REA group J) was received from Curtis Donskey, Cleveland VA Hospital, Cleveland, OH) and cultured as previously described. The isolate has been previously utilized for the hamster model by the University of North Texas Health Sciences Center (UNTHSC). The infection inoculum was tested to determine the ratio of spores to vegetative cells. In accordance with the details in Table 2, a total of 60 animals were used in this study. Animals were randomized into the 10 study groups (N = 6 per group) prior to treatment. On Day 0, animals were infected with 5.63 x 10^7 total CFU of which 2.81 x 10^4 represented inoculated spores. On Day 1, at 24 hrs post-infection, all animals received a single subcutaneous injection of clindamycin (10 mg/kg). Test articles in 5% mannitol were then administered orally 3x per day (TID), starting on Day 2 at 18 hours after clindamycin injection, for 5 consecutive days (Days 2 through 6). USP-grade vancomycin (positive control) was prepared in water for injection (WFI) at 50 mg/mL and stored refrigerated during the course of the study. […] Data was analyzed using GraphPad Prism 6.0d. […]
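Throughout, for Forced degradation Δ Conc: purity and concentration determined by HPLC on aqueous solutions kept in a stability chamber, with samples analyzed at day 0 and after incubation.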
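Throughout, for Forced degradation Δ Purity: purity and concentration determined by HPLC on aqueous solutions kept in a stability chamber, with samples analyzed at day 0 and after incubation.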

gallidermin (IASKFLCTPGCAKTGSFNSYCC; also: lantibiotic (lanthionine rings and dehydro residues not given here); UniProt P21838 31-52, looked up) [lantibiotic / cationic antimicrobial peptide]
MIC increase of C. difficile ([1]; cpr induction in vitro): 2–4 fold | MIC of C. difficile ([1]; level reached after MIC increase (cpr induction)): ~ 1 μg/ml

CCc1c(Cl)c(O)c(Cl)c(O)c1C(=O)O[C@H]1[C@H](O)[C@H](OC)[C@H](OC/C2=C\C=C\C[C@H](O)/C(C)=C/[C@H](CC)[C@@H](O[C@@H]3OC(C)(C)[C@@H](OC(=O)C(C)C)[C@H](O)[C@@H]3O)/C(C)=C/C(C)=C/C[C@@H]([C@@H](C)O)OC2=O)O[C@@H]1C [fidaxomycin]
solubility in water [2]: 12.5 µg/mL (≈ 11.8 µM)

C=C1NC(=O)[C@H](Cc2c[nH]c3ccccc23)NC(=O)[C@H](NC(=O)[C@H](CCCCN)NC(=O)[C@@H](N)[C@@H](C)CC)CSC[C@@H](C(=O)N[C@H]2C(=O)N3CCC[C@H]3C(=O)NCC(=O)N[C@H](C(=O)N[C@@H](C)C(=O)N[C@@H](CC(=O)O)C(=O)N/C(=C\C)C(=O)NCC(=O)N[C@@H]3CSC[C@@H]4NC(=O)[C@H](Cc5ccc(O)cc5)NC(=O)[C@@H](CS/C=C\NC4=O)NC(=O)[C@H](CC(N)=O)NC(=O)[C@H](Cc4ccccc4)NC3=O)CS[C@H]2C)NC(=O)[C@H](CC(C)C)NC1=O [OG703]
Forced degradation Δ Conc ([3]; 2 Days at 37°C): -9.2% and -9% | Forced degradation Δ Purity ([3]; 2 Days at 37°C): -0.97% | Forced degradation Δ Conc ([3]; 2 Days at +50°C): -15% | Forced degradation Δ Purity ([3]; 2 Days at +50°C): -1.74% | Forced degradation Δ Conc ([3]; 7 Days at 37°C): -13.4% and -13% | Forced degradation Δ Purity ([3]; 7 Days at 37°C): -1.04% | Forced degradation Δ Conc ([3]; 7 Days at +50°C): -30.3% and -30% | Forced degradation Δ Purity ([3]; 7 Days at +50°C): -4.79% | MIC 50 [4]: 1 µg/mL (≈ 0.457 µM) | MIC 90 [4]: 2 µg/mL (≈ 0.913 µM) | MIC Mode [4]: 1 µg/mL (≈ 0.457 µM) | MIC Range [4]: 0.5 to 2 µg/mL | Minimum Inhibitory Concentration C. difficile 103-1 [4]: 0.5 µg/mL | Minimum Inhibitory Concentration C. difficile 107-1 [4]: 2 µg/mL | Minimum Inhibitory Concentration C. difficile ATCC 9689 [4]: 2 µg/mL | Minimum Inhibitory Concentration C. difficile ATCC 43597 [4]: 1 µg/mL | Minimum Inhibitory Concentration C. difficile ATCC BAA-1805 [4]: 1 µg/mL | Minimum Inhibitory Concentration C. difficile ATCC BAA-1808 [4]: 1 µg/mL | Minimum Inhibitory Concentration C. difficile ATCC BAA-1874 [4]: 0.5 µg/mL | Minimum Inhibitory Concentration C. difficile ATCC BAA-1875 [4]: 1 µg/mL | solubility reduced relative to OG706 [5]: 2-3 fold | solubility [6]: 7000 µg/mL (≈ 3200 µM)

C=C1NC(=O)[C@H](Cc2c[nH]c3ccccc23)NC(=O)[C@H](NC(=O)[C@H](CCCCN)NC(=O)[C@@H](N)[C@@H](C)CC)CSC[C@@H](C(=O)N[C@H]2C(=O)N3CCC[C@H]3C(=O)NCC(=O)N[C@H](C(=O)N[C@@H](C)C(=O)N[C@@H](C)C(=O)N/C(=C\C)C(=O)NCC(=O)N[C@@H]3CSC[C@@H]4NC(=O)[C@H](Cc5ccc(O)cc5)NC(=O)[C@@H](CS/C=C\NC4=O)NC(=O)[C@H](CC(N)=O)NC(=O)[C@H](Cc4ccccc4)NC3=O)CS[C@H]2C)NC(=O)[C@H](CC(C)C)NC1=O [OG711]
Forced degradation Δ Conc ([3]; 2 Days at 37°C): -12.5% and -13% | Forced degradation Δ Purity ([3]; 2 Days at 37°C): -1.24% | Forced degradation Δ Conc ([3]; 2 Days at +50°C): -8.7% and -9% | Forced degradation Δ Purity ([3]; 2 Days at +50°C): -0.61% | Forced degradation Δ Conc ([3]; 7 Days at 37°C): -10.8% and -11% | Forced degradation Δ Purity ([3]; 7 Days at 37°C): -0.63% | Forced degradation Δ Conc ([3]; 7 Days at +50°C): -40.1% and -40% | Forced degradation Δ Purity ([3]; 7 Days at +50°C): -2.94% | MIC 50 [4]: 0.5 µg/mL (≈ 0.233 µM) | MIC 90 [4]: 1 µg/mL (≈ 0.466 µM) | MIC Mode [4]: 0.25 µg/mL (≈ 0.117 µM) | MIC Range [4]: 0.25 to 1 µg/mL | Minimum Inhibitory Concentration C. difficile 103-1 [4]: 0.25 µg/mL | Minimum Inhibitory Concentration C. difficile 107-1 [4]: 1 µg/mL | Minimum Inhibitory Concentration C. difficile ATCC 9689 [4]: 1 µg/mL | Minimum Inhibitory Concentration C. difficile ATCC 43597 [4]: 0.5 µg/mL | Minimum Inhibitory Concentration C. difficile ATCC BAA-1805 [4]: 0.25 µg/mL | Minimum Inhibitory Concentration C. difficile ATCC BAA-1808 [4]: 0.25 µg/mL | Minimum Inhibitory Concentration C. difficile ATCC BAA-1874 [4]: 0.5 µg/mL | Minimum Inhibitory Concentration C. difficile ATCC BAA-1875 [4]: 0.5 µg/mL | solubility [6]: 12000 to 18000 µg/mL (≈ 5590 to 8390 µM) | improvement in half-life in FaSSIF (stability to proteolytic degradation) relative to OG253 [7]: > 50 fold

CN[C@H](CC(C)C)C(=O)N[C@H]1C(=O)N[C@@H](CC(N)=O)C(=O)N[C@H]2C(=O)N[C@H]3C(=O)N[C@H](C(=O)N[C@H](C(=O)O)c4cc(O)cc(O)c4-c4cc3ccc4O)[C@H](O)c3ccc(c(Cl)c3)Oc3cc2cc(c3O[C@@H]2O[C@H](CO)[C@@H](O)[C@H](O)[C@H]2O[C@H]2C[C@](C)(N)[C@H](O)[C@H](C)O2)Oc2ccc(cc2Cl)[C@H]1O [Vancomycin, reference compound]
Minimum Inhibitory Concentration C. difficile Range ([4]; 8 C. difficile strains): 0.5 to 4 mg/mL | MIC 50 ([4]; Clostridioides difficile): 0.5 µg/mL (≈ 0.345 µM) | MIC 90 ([4]; Clostridioides difficile): 4 µg/mL (≈ 2.76 µM) | MIC Range ([4]; panel of C. difficile strains, n = 8): 0.5 to 4 µg/mL | survival ([8]; 20 mg/kg oral gavage x 5 days (test compounds TID, vancomycin QD), outcome of the study (Day 21)): 83% | C. difficile spore count of cecal samples ([8]; 20 mg/kg oral gavage x 5 days, cecal contents at death or Day 21): 2.96 log10 CFU/mL | spore counts compared to control (vehicle-treated) animals ([8]; cecal contents at death or Day 21): significantly lower
